Laboratory results from US20250163056A1, “NONMUSCLE MYOSIN II INHIBITORS” (The University of Florida Research Foundation, Inc., priority 2018, published 2025).

Key:
Bovine cardiac myosin = Bovine cardiac myosin (Bos taurus (Bovine), UniProt Q9BE39); assay: Cardiac muscle myosin II actin-activated ATPase assay (NADH-coupled); format: biochemical; parameters: key to Ratio CMMII:NMII Ki/EC50: NMII-sel: no Ki value for cardiac myosin II could be determined; the compounds had no detectable inhibitory properties versus the cardiac myosin II; settings: for Ratio CMMII:NMII Ki/EC50: cardiac myosin II Ki over nonmuscle myosin II EC50; for Ki: 300 nM cardiac myosin, 10 μM actin, 25° C., read-out: CMMII KI
Procedure, shortened: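 NADH-coupled (PK/LDH) assay at 25° C: 300 nM bovine cardiac myosin, 10 μM rabbit F-actin, 1 mM ATP, 1 mM PEP, 220 μM NADH, MOPS pH 7.0, 0.5% DMSO. NADH fluorescence was followed for 30 min; Ki values came from 16-point triplicate data (top 50 uM) fitted to a quadratic one-to-one binding model.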

Rabbit skeletal myosin = assay: Skeletal muscle myosin II actin-activated ATPase assay; format: biochemical; settings: 20 nM skeletal muscle myosin II; read-out: SKMMII KI
Procedure, shortened: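 NADH-coupled (PK/LDH) actin-activated ATPase at 25 °C with 20 nM rabbit skeletal myosin II, 10 μM F-actin, 1 mM ATP, 1 mM PEP, 220 μM NADH in MOPS pH 7.0, MgCl2, EGTA, BSA, DTT, 0.5% DMSO. NADH fluorescence followed 30 min; inhibitory constants from 16-point triplicate curves (top 50 uM), quadratic one-to-one fit.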

[1] = Photostability, percentage remaining undegraded under illumination or in the dark; settings: for Photostability 4 hours: percentage remaining undegraded after 4 hours illumination; for Photostability 24 hours: percentage remaining undegraded after 24 hours illumination; for Photostability Dark (24 h): percentage remaining undegraded in the dark

Sequence of Bovine cardiac myosin (Q9BE39 whole entry): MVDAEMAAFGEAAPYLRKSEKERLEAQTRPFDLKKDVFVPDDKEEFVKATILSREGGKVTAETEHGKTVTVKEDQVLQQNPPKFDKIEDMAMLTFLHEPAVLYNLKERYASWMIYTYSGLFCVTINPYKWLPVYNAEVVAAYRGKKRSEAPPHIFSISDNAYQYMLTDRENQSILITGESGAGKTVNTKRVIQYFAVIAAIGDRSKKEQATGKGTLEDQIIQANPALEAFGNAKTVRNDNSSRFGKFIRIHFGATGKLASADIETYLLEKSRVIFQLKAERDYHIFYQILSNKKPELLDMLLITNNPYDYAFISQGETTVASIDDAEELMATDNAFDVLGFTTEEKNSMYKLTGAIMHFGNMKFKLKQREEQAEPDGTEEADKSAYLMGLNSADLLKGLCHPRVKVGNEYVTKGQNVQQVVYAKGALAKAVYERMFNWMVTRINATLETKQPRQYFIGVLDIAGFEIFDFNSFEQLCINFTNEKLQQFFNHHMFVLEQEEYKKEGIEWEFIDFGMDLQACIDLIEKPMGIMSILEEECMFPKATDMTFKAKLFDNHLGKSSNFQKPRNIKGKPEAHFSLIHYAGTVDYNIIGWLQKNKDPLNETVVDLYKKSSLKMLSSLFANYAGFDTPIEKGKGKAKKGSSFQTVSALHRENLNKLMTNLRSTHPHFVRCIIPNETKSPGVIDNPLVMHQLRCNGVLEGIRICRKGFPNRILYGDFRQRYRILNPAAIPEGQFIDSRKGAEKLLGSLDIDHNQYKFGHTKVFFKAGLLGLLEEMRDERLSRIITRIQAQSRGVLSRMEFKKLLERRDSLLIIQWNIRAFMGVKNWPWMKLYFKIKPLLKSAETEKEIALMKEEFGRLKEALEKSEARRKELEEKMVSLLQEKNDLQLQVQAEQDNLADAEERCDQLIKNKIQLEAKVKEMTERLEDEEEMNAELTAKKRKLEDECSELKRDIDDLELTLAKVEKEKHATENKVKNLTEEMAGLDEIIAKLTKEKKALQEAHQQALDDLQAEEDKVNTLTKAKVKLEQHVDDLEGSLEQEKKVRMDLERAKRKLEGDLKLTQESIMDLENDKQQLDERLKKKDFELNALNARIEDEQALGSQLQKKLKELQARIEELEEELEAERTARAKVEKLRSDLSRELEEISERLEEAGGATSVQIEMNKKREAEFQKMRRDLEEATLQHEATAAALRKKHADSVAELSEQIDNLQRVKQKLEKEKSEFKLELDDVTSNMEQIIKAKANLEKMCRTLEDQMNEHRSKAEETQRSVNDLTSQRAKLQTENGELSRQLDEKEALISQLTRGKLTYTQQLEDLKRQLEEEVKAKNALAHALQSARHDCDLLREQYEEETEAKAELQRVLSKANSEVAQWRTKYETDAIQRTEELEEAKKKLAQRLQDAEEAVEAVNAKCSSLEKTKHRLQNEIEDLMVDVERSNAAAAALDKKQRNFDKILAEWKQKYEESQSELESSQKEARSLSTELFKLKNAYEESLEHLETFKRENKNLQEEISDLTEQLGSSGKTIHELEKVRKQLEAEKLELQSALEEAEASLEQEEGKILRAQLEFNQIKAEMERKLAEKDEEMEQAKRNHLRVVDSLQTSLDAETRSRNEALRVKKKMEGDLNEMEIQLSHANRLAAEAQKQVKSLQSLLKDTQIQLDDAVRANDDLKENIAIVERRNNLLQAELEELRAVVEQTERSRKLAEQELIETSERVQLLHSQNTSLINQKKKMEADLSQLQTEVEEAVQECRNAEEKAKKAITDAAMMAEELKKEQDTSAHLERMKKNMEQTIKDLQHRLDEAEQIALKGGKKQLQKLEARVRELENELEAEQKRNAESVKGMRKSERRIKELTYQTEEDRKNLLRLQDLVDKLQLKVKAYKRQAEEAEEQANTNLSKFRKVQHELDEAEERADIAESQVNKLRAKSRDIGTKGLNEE
Sequence of Bovine cardiac myosin (P85100 whole entry partner): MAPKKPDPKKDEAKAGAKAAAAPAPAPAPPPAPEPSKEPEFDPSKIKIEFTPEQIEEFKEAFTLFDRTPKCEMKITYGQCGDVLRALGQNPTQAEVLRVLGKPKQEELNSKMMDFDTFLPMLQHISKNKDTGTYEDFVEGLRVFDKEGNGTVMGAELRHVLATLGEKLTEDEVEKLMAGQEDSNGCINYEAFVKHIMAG
Sequence of Bovine cardiac myosin (Q3SZE5 whole entry partner): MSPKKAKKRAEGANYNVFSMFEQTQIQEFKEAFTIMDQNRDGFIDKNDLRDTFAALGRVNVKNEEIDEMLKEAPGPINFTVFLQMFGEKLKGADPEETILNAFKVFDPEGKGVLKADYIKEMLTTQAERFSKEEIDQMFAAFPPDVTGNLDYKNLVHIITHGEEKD

Compound	Ratio CMMII:NMII Ki/EC50 (Bovine cardiac myosin)	Ki (Rabbit skeletal myosin)	Photostability 4 hours [1]	Photostability 24 hours [1]	Photostability Dark (24 h) [1]	Ki (Bovine cardiac myosin)
O=C1c2c(sc3c2CCCC3)N=C2N(c3ccccc3)CC[C@@]12O [BPN-0027043]	NMII-sel	15 µM	97.7%	72.3%	>99%	
Cc1cc2c(cc1C(F)(F)F)N=C1N(c3ccc(C#N)cc3)CC[C@@]1(O)C2=O [BPN-0027071]	NMII-sel	20 µM	>99%	95.3%	>99%	
Cc1cc2c(s1)C(=O)[C@]1(O)CCN(c3ccc(C#N)c(C)c3)C1=N2 [BPN-0027072]	3.1	5 µM	>99%	>99%	>99%	31 µM
Cc1cc2c(s1)C(=O)[C@]1(O)CCN(c3cccc(Br)c3)C1=N2 [BPN-0027074]	3.7	16 µM	95.8%	93.4%	94.5%	77 µM
Cc1cc2c(cc1C(F)(F)F)N=C1N(c3ccc(Cl)cc3)CC[C@@]1(O)C2=O [BPN-0027080]	NMII-sel	4.8 µM	98.1%	88.1%	>99%	
Cc1sc2c(c1C)C(=O)[C@]1(O)CCN(c3ccc(I)cc3)C1=N2 [BPN-0027081]	8.2	0.29 µM	97.0%	46.3%	96.9%	9 µM
Cc1cc2c(cc1C(F)(F)F)N=C1N(c3ccc4ccoc4c3)CC[C@@]1(O)C2=O [BPN-0027108]	NMII-sel	10 µM	>99%	97.0%	>99%	
Cc1cc2c(cc1C)C(=O)[C@]1(O)CCN(c3ccc(I)cc3)C1=N2 [BPN-0027109]	21.2	0.27 µM	82.5%	29.4%	>99%	11 µM
Cc1nc2cc(N3CC[C@@]4(O)C(=O)c5cc(C)c(C)cc5N=C34)ccc2o1 [BPN-0027118]	4.6	0.68 µM	68.6%	9.2%	94.4%	5.5 µM
Cc1cc2c(cc1C)C(=O)[C@]1(O)CCN(c3ccc4scnc4c3)C1=N2 [BPN-0027121]	7.6	2.7 µM	75.6%	6.5%	98.6%	19 µM
Cc1cc2c(cc1C)C(=O)[C@]1(O)CCN(c3ccc4ncsc4c3)C1=N2 [BPN-0027122]	26.5	5.9 µM	69.5%	5.3%	97.1%	45 µM
Cn1ncc2c1N=C1N(c3ccccc3)CC[C@@]1(O)C2=O [BPN-0027159]	NMII-sel	330 µM	89.9%	22.5%	>99%	
Cc1ccc2c(c1)C(=O)[C@]1(O)CCN(c3ccc4ncc(C)cc4c3)C1=N2 [BPN-0027160]	10.3	0.2 µM	95.5%	73.0%	>99%	30 µM
Cc1cc2cc(N3CC[C@@]4(O)C(=O)c5cc(C)c(C)cc5N=C34)ccc2cn1 [BPN-0027161]	21.8	0.24 µM	78.6%	60.2%	98.3%	24 µM
Cc1cc2c(s1)C(=O)[C@]1(O)CCN(c3ccc(C#N)c(Cl)c3)C1=N2 [BPN-0027162]	6.6	4.5 µM	98.5%	95.9%	>99%	52 µM
Cc1ccc2c(c1)C(=O)[C@]1(O)CCN(c3ccc(CO)c(Cl)c3)C1=N2 [BPN-0027163]	5.0	5.9 µM	95.0%	44.6%	>99%	21 µM

Compound	Ratio CMMII:NMII Ki/EC50 (Bovine cardiac myosin)	Ki (Rabbit skeletal myosin)	Photostability 4 hours [1]	Photostability 24 hours [1]	Photostability Dark (24 h) [1]	Ki (Bovine cardiac myosin)
Cc1cc2c(s1)C(=O)[C@]1(O)CCN(c3ccc4ncccc4c3)C1=N2 [BPN-0027181]	33.7	3.1 µM	>99%	99.0%	>99%	91 µM
Cc1cc2c(cc1F)C(=O)[C@]1(O)CCN(c3ccc4ncsc4c3)C1=N2 [BPN-0027196]	NMII-sel	12 µM	94.9%	7.1%	>99%	
Cc1cc2c(cc1F)C(=O)[C@]1(O)CCN(c3ccc4ncccc4c3)C1=N2 [BPN-0027197]	NMII-sel	2.4 µM	>99%	36.4%	>99%	
Cc1nc2cc(N3CC[C@@]4(O)C(=O)c5cc(F)c(C)cc5N=C34)ccc2o1 [BPN-0027198]	3.6	0.88 µM	89.9%	21.4%	>99%	10.5 µM
Cc1nc2ccc(N3CC[C@@]4(O)C(=O)c5cc(C)c(C)cc5N=C34)cc2o1 [BPN-0027213]	11.4	0.45 µM	46.3%	1.0%	85.0%	33 µM
Cc1cc2c(cc1C)C(=O)[C@]1(O)CCN(c3ccc4ncccc4c3)C1=N2 [BPN-0027215]	NMII-sel	1 µM	73.2%	9.2%	97.3%	
Cc1cc2c(s1)N=C1N(c3ccc4ncccc4c3)CC[C@@]1(O)C2=O [BPN-0027216]	11.5	4.6 µM	97.2%	85.0%	>99%	31 µM
CCc1cc2c(s1)N=C1N(c3ccc4ncccc4c3)CC[C@@]1(O)C2=O [BPN-0027217]	20.5	21 µM	97.9%	76.0%	>99%	160 µM
O=C1c2cc(C(F)(F)F)ccc2N=C2N(c3ccc4ncccc4c3)CC[C@@]12O [BPN-0027218]	NMII-sel	40 µM	90.0%	4.4%	95.5%	
Cc1cc2c(cc1C)C(=O)[C@]1(O)CCN(c3ccc4ncncc4c3)C1=N2 [BPN-0027228]	10.7	4.6 µM	>99%	89.1%	>99%	300 µM
N#Cc1ccc(N2CC[C@@]3(O)C(=O)c4c(sc5c4CCCC5)N=C23)cc1 [BPN-0027236]	NMII-sel	5 µM	>99%	84.9%	>99%	
Cc1cc(N2CC[C@@]3(O)C(=O)c4cc(C(F)(F)F)ccc4N=C23)on1 [BPN-0027237]	4.5	6.7 µM	79.8%	15.8%	82.7%	50 µM
Cc1sc2c(c1C)C(=O)[C@]1(O)CCN(c3ccc(C#N)c(Cl)c3)C1=N2 [BPN-0027238]	NMII-sel	3.7 µM	>99%	>99%	>99%	
Cc1cc2c(cc1C)C(=O)[C@]1(O)CCN(c3ccc4nnccc4c3)C1=N2 [BPN-0027241]	7.7	7.2 µM	91.6%	87.0%	97.4%	100 µM
COc1ccc2cc(N3CC[C@@]4(O)C(=O)c5cc(C)c(C)cc5N=C34)ccc2n1 [BPN-0027250]	NMII-sel	1 µM	45.8%	2.7%	70.1%	
COc1ccc2cc(N3CC[C@@]4(O)C(=O)c5cc(C)ccc5N=C34)ccc2n1 [BPN-0027255]	NMII-sel	0.8 µM	82.4%	42.2%	98.3%	
